# Non-standard residues stand in square brackets, D forms with d. Residues, ends and D or L forms follow the SMILES beside them. Trp(1-CH2COOH) = N[C@@H](Cc1cn(CC(=O)O)c2ccccc12)C(=O)O; Hyp = O=C(O)[C@@H]1C[C@@H](O)CN1; NMeNle = CCCC[C@H](NC)C(=O)O; NMeA = CN[C@@H](C)C(=O)O; Dab = NCC[C@H](N)C(=O)O; Dap = NC[C@H](N)C(=O)O; βAla = NCCC(=O)O
# Biological target: T1, PD-1-Ig binding to PD-L1-TVMV-His (PD-L1-His) (Homo sapiens, UniProt Q9NZQ7)
# T1 construct: hPDL1(19-239)-TVMV-His; made in house; host or cells: HEK293T cells
# Assay: PD-1/PD-L1 Homogenous Time-Resolved Fluorescence (HTRF) binding assay
# Details: PD-1-Ig (20 nM) / PD-L1-His (10 nM); range classes
# Excerpt: The ability of the macrocyclic peptides of the present disclosure to bind to PD-L1 was investigated using a PD-1/PD-L1 Homogenous Time-Resolved Fluorescence (HTRF) binding assay.
# Homogenous Time-Resolved Fluorescence (HTRF) Assays of Binding of Soluble PD-1 to Soluble PD-L1. Soluble PD-1 and soluble PD-L1 refers to proteins with carboxyl-end truncations that remove the transmembrane-spanning regions and are fused to heterologous sequences, specifically the Fc portion of the human immunoglobuling G sequence (Ig) or the hexahistidine epitope tag (His). All binding studies were performed in an HTRF assay buffer consisting of dPBS supplemented with 0.1% (w/v) bovine serum albumin and 0.05% (v/v) Tween-20. For the PD-1-Ig/PD-L1-His binding assay, inhibitors were pre-incubated with PD-L1-His (10 nM final) for 15 m in 4 μl of assay buffer, followed by addition of PD-1-Ig (20 nM final) in 1 μl of assay buffer and further incubation for 15 m. PD-L1 fusion proteins from either human, cynomologous macaques, mouse, or other species were used. HTRF detection was achieved using europium crypate-labeled anti-Ig monoclonal antibody (1 nM final) and allophycocyanin (APC) labeled anti-His monoclonal antibody (20 nM final). Antibodies were diluted in HTRF detection buffer and 5 μl was dispensed on top of binding reaction. […] Additional binding assays were established between PD-1-Ig/PD-L2-His (20 and 5 nM, respectively), CD80-His/PD-L1-Ig (100 and 10 nM, respectively) and CD80-His/CTLA4-Ig (10 and 5 nM, respectively).
# Recombinant Proteins. […] Human PD-L2-His (Sino Biologicals), CD80-His (Sino Biologicals), CTLA4-Ig (RnD Systems) were all obtained through commercial sources.
# T1 sequence (Q9NZQ7 with tags, fused parts or gaps): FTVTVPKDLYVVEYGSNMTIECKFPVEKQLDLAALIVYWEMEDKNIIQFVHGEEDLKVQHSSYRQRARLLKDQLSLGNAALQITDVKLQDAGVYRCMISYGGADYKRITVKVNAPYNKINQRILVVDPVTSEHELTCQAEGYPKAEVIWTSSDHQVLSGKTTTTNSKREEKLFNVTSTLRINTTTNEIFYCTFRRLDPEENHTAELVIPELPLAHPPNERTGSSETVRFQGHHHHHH
row,IC50 [nM],SMILES
1,10 to 99,CCCC[C@H]1C(=O)N(C)[C@@H](CCCC)C(=O)NC(CC(C)C)C(=O)N[C@H](C(=O)NCC(N)=O)CNCC(=O)N[C@@H](Cc2ccc(O)cc2)C(=O)N(C)[C@@H](C)C(=O)N[C@@H](CC(N)=O)C(=O)N2CCC[C@H]2C(=O)N[C@@H](CN)C(=O)N[C@@H](CC(C)C)C(=O)N2C[C@H](O)C[C@H]2C(=O)N[C@@H](Cc2c[nH]c3ccccc23)C(=O)N[C@@H](CCN)C(=O)N[C@@H](Cc2c[nH]c3ccccc23)C(=O)N1C (some centres unmarked) [Example 1029]
2,1 to 9.9,CCCC[C@H]1C(=O)N(C)[C@@H](CCCC)C(=O)NC(CC(C)C)C(=O)N[C@H](C(=O)NCC(N)=O)CNCC(=O)N[C@@H](Cc2ccc(O)cc2)C(=O)N(C)[C@@H](C)C(=O)N[C@@H](CC(N)=O)C(=O)N2CCC[C@H]2C(=O)N[C@@H](CN)C(=O)N[C@@H](CC(C)C)C(=O)N2C[C@H](O)C[C@H]2C(=O)N[C@@H](Cc2c[nH]c3ccccc23)C(=O)N[C@@H](CCN)C(=O)N[C@@H](Cc2cn(CC(=O)O)c3ccccc23)C(=O)N1C (some centres unmarked) [Example 1030]
3,1 to 9.9,CCCC[C@H]1C(=O)N(C)[C@@H](CCCC)C(=O)NC(CC(C)C)C(=O)N[C@H](C(=O)NCC(N)=O)CNCC(=O)N[C@@H](Cc2ccc(O)cc2)C(=O)N(C)[C@@H](C)C(=O)N[C@@H](CC(N)=O)C(=O)N2CCC[C@H]2C(=O)N[C@@H](CN)C(=O)N[C@@H](CCC(=O)O)C(=O)N2C[C@H](O)C[C@H]2C(=O)N[C@@H](Cc2c[nH]c3ccccc23)C(=O)N[C@@H](CCN)C(=O)N[C@@H](Cc2cn(CC(=O)O)c3ccccc23)C(=O)N1C (some centres unmarked) [Example 1031]
4,1 to 9.9,CCCC[C@H]1C(=O)N(C)[C@@H](CCCC)C(=O)NC(CC(C)C)C(=O)N[C@H](C(=O)NCC(N)=O)CNCC(=O)N[C@@H](Cc2ccc(O)cc2)C(=O)N(C)[C@@H](C)C(=O)N[C@@H](CC(N)=O)C(=O)N2CCC[C@H]2C(=O)N[C@@H](CN)C(=O)N[C@@H](CC(C)C)C(=O)N2C[C@H](O)C[C@H]2C(=O)N[C@@H](Cc2c[nH]c3ccccc23)C(=O)N[C@@H](CCCCN)C(=O)N[C@@H](Cc2cn(CC(=O)O)c3ccccc23)C(=O)N1C (some centres unmarked) [Example 1032]
5,10 to 99,CCCC[C@H]1C(=O)N(C)[C@@H](CCCC)C(=O)NC(CC(C)C)C(=O)N[C@H](C(N)=O)CNCC(=O)N[C@@H](Cc2ccc(O)cc2)C(=O)N(C)[C@@H](C)C(=O)N[C@@H](CC(N)=O)C(=O)N2CCC[C@H]2C(=O)N[C@@H](CN)C(=O)N[C@@H](CC(C)C)C(=O)N2C[C@H](O)C[C@H]2C(=O)N[C@@H](Cc2c[nH]c3ccccc23)C(=O)N[C@@H](CCCCN)C(=O)N[C@@H](Cc2cn(CC(=O)O)c3ccccc23)C(=O)N1C (some centres unmarked) [Example 1033]
6,1 to 9.9,CCCC[C@H]1C(=O)N(C)[C@@H](CCCC)C(=O)NC(CC(C)C)C(=O)N[C@H](C(N)=O)CNCC(=O)N[C@@H](Cc2ccc(O)cc2)C(=O)N(C)[C@@H](C)C(=O)N[C@@H](CC(N)=O)C(=O)N2CCC[C@H]2C(=O)N[C@@H](CN)C(=O)N[C@@H](CC(C)C)C(=O)N2C[C@H](O)C[C@H]2C(=O)N[C@@H](Cc2c[nH]c3ccccc23)C(=O)N[C@@H](CCN)C(=O)N[C@@H](Cc2cn(CC(=O)O)c3ccccc23)C(=O)N1C (some centres unmarked) [Example 1034]
7,1 to 9.9,CCCC[C@H]1C(=O)N(C)[C@@H](CCCC)C(=O)NC(CC(C)C)C(=O)N[C@H](C(N)=O)CNCC(=O)N[C@@H](Cc2ccc(O)cc2)C(=O)N(C)[C@@H](C)C(=O)N[C@@H](CC(N)=O)C(=O)N2CCC[C@H]2C(=O)N[C@@H](CN)C(=O)N[C@@H](CCC(=O)O)C(=O)N2C[C@H](O)C[C@H]2C(=O)N[C@@H](Cc2c[nH]c3ccccc23)C(=O)N[C@@H](CCN)C(=O)N[C@@H](Cc2cn(CC(=O)O)c3ccccc23)C(=O)N1C (some centres unmarked) [Example 1035]
8,1 to 9.9,CCCC[C@H]1C(=O)N(C)[C@@H](CCCC)C(=O)N[C@@H](CC(C)C)C(=O)N[C@H](C(=O)NCC(N)=O)CNCC(=O)N[C@@H](Cc2ccc(O)cc2)C(=O)N(C)[C@@H](C)C(=O)N[C@@H](CC(N)=O)C(=O)N2CCC[C@H]2C(=O)N[C@@H](CN)C(=O)N[C@@H](CC(C)C)C(=O)N2C[C@H](O)C[C@H]2C(=O)N[C@@H](Cc2c[nH]c3ccccc23)C(=O)N[C@@H](CCCN)C(=O)N[C@@H](Cc2cn(CC(=O)O)c3ccccc23)C(=O)N1C [Example 1036]
9,1 to 9.9,CCCC[C@H]1C(=O)N(C)[C@@H](CCCC)C(=O)N[C@@H](CC(C)C)C(=O)N[C@H](C(=O)NCC(N)=O)CNCC(=O)N[C@@H](Cc2ccc(O)cc2)C(=O)N2CCCC[C@H]2C(=O)N[C@@H](CC(N)=O)C(=O)N2CCC[C@H]2C(=O)N[C@@H](CN)C(=O)N[C@@H](CC(C)C)C(=O)N2C[C@H](O)C[C@H]2C(=O)N[C@@H](Cc2c[nH]c3ccccc23)C(=O)N[C@@H](CCN)C(=O)N[C@@H](Cc2cn(CC(=O)O)c3ccccc23)C(=O)N1C [Example 1037]
10,1 to 9.9,CCCC[C@H]1C(=O)N(C)[C@@H](CCCC)C(=O)N[C@@H](CC(C)C)C(=O)N[C@H](C(N)=O)CNCC(=O)N[C@@H](Cc2ccc(O)cc2)C(=O)N2CCCC[C@H]2C(=O)N[C@@H](CC(N)=O)C(=O)N2CCC[C@H]2C(=O)N[C@@H](CN)C(=O)N[C@@H](CC(C)C)C(=O)N2C[C@H](O)C[C@H]2C(=O)N[C@@H](Cc2c[nH]c3ccccc23)C(=O)N[C@@H](CCN)C(=O)N[C@@H](Cc2cn(CC(=O)O)c3ccccc23)C(=O)N1C [Example 1038]
11,1 to 9.9,CCCC[C@H]1C(=O)N(C)[C@@H](CCCC)C(=O)N[C@@H](CC(C)C)C(=O)N[C@H](C(=O)NCC(N)=O)CNCC(=O)N[C@@H](Cc2ccc(OC)cc2)C(=O)N(C)[C@@H](C)C(=O)N[C@@H](CC(N)=O)C(=O)N2CCC[C@H]2C(=O)N[C@@H](CN)C(=O)N[C@@H](CC(C)C)C(=O)N2C[C@H](O)C[C@H]2C(=O)N[C@@H](Cc2c[nH]c3ccccc23)C(=O)N[C@@H](CCN)C(=O)N[C@@H](Cc2cn(CC(=O)O)c3ccccc23)C(=O)N1C [Example 1039]
12,1 to 9.9,CCCC[C@H]1C(=O)N(C)[C@@H](CCCC)C(=O)N[C@@H](CC(C)C)C(=O)N[C@H](C(=O)NCC(N)=O)CNCC(=O)N[C@@H](Cc2ccc(OC)cc2)C(=O)N2CCCC[C@H]2C(=O)N[C@@H](CC(N)=O)C(=O)N2CCC[C@H]2C(=O)N[C@@H](CN)C(=O)N[C@@H](CC(C)C)C(=O)N2C[C@H](O)C[C@H]2C(=O)N[C@@H](Cc2c[nH]c3ccccc23)C(=O)N[C@@H](CCN)C(=O)N[C@@H](Cc2cn(CC(=O)O)c3ccccc23)C(=O)N1C [Example 1040]
13,1 to 9.9,CCCC[C@H]1C(=O)N(C)[C@@H](CCCC)C(=O)N[C@@H](CC(C)C)C(=O)N[C@H](C(=O)NCC(N)=O)CNCC(=O)N[C@@H](Cc2ccc(OC)cc2)C(=O)N(C)[C@@H](C)C(=O)N[C@@H](CC(N)=O)C(=O)N2CCC[C@H]2C(=O)N[C@@H](CN)C(=O)N[C@@H](CCC(=O)O)C(=O)N2C[C@H](O)C[C@H]2C(=O)N[C@@H](Cc2c[nH]c3ccccc23)C(=O)N[C@@H](CCN)C(=O)N[C@@H](Cc2cn(CC(=O)O)c3ccccc23)C(=O)N1C [Example 1041]
14,10 to 99,CCCC[C@H]1C(=O)N(C)[C@@H](CCCC)C(=O)N[C@@H](CC(C)C)C(=O)N[C@H](C(N)=O)CNCC(=O)N[C@@H](Cc2ccc(OC)cc2)C(=O)N2CCCC[C@H]2C(=O)N[C@@H](CC(N)=O)C(=O)N2CCC[C@H]2C(=O)N[C@@H](CN)C(=O)N[C@@H](CC(C)C)C(=O)N2C[C@H](O)C[C@H]2C(=O)N[C@@H](Cc2c[nH]c3ccccc23)C(=O)N[C@@H](CCN)C(=O)N[C@@H](Cc2cn(CC(=O)O)c3ccccc23)C(=O)N1C [Example 1042]
15,1 to 9.9,CCCC[C@H]1C(=O)N(C)[C@@H](CCCC)C(=O)N[C@@H](CC(C)C)C(=O)NCC(=O)NCC(=O)N[C@@H](Cc2ccc(O)cc2)C(=O)N(C)[C@@H](C)C(=O)N[C@@H](CC(N)=O)C(=O)N2CCC[C@H]2C(=O)N[C@@H](CN)C(=O)N[C@@H](CC(C)C)C(=O)N2C[C@H](O)C[C@H]2C(=O)N[C@@H](Cc2c[nH]c3ccccc23)C(=O)N[C@@H](CCN)C(=O)N[C@@H](Cc2c[nH]c3ccccc23)C(=O)N1C [Example 5001] (cyclo([Dab]W[NMeNle][NMeNle]LGGY[NMeA]NP[Dap]L[Hyp]W))
16,1 to 9.9,CCCC[C@H]1C(=O)N(C)[C@@H](CCCC)C(=O)N[C@@H](CC(C)C)C(=O)NCC(=O)NCC(=O)N[C@@H](Cc2ccc(O)cc2)C(=O)N(C)[C@@H](C)C(=O)N[C@@H](CC(N)=O)C(=O)N2CCC[C@H]2C(=O)N[C@@H](CN)C(=O)N[C@@H](CC(C)C)C(=O)N2C[C@H](O)C[C@H]2C(=O)N[C@@H](Cc2c[nH]c3ccccc23)C(=O)N[C@@H](CCN)C(=O)N[C@@H](Cc2cn(CC(=O)O)c3ccccc23)C(=O)N1C [Example 5002] (cyclo([Dab][Trp(1-CH2COOH)][NMeNle][NMeNle]LGGY[NMeA]NP[Dap]L[Hyp]W))
17,100 to 10000,CCCC[C@H]1C(=O)N(C)[C@@H](CCCC)C(=O)N[C@@H](CC(C)C)C(=O)NCCC(=O)N[C@@H](Cc2ccc(O)cc2)C(=O)N(C)[C@@H](C)C(=O)N[C@@H](CC(N)=O)C(=O)N2CCC[C@H]2C(=O)N[C@@H](Cc2c[nH]cn2)C(=O)N[C@@H](CC(C)C)C(=O)N2C[C@H](O)C[C@H]2C(=O)N[C@@H](Cc2c[nH]c3ccccc23)C(=O)NCC(=O)N[C@@H](Cc2c[nH]c3ccccc23)C(=O)N1C [Example 5003] (cyclo(GW[NMeNle][NMeNle]L[βAla]Y[NMeA]NPHL[Hyp]W))

# — patent US9732119B2, “Immunomodulators” (BRISTOL-MYERS SQUIBB COMPANY, priority 2014, dated 2017)
